Results reported in US8546381B2, “Bridged heterocyclic compounds and methods of use” (Medivation Technologies, Inc., priority 2008, dated 2013).

Legend:
[1] = target: T1, human recombinant adrenergic α2A receptor (Homo sapiens, UniProt P08913); assay: Adrenergic α2A radioligand binding ([3H]MK-912); conditions: for inhibition at 1 µM: read-out: Adrenergic α2A, inhibition of ligand binding (1 μM)
T1 construct: expressed in transfected cells; host or cells: insect Sf9 cells
T1 sequence (P08913 1-465): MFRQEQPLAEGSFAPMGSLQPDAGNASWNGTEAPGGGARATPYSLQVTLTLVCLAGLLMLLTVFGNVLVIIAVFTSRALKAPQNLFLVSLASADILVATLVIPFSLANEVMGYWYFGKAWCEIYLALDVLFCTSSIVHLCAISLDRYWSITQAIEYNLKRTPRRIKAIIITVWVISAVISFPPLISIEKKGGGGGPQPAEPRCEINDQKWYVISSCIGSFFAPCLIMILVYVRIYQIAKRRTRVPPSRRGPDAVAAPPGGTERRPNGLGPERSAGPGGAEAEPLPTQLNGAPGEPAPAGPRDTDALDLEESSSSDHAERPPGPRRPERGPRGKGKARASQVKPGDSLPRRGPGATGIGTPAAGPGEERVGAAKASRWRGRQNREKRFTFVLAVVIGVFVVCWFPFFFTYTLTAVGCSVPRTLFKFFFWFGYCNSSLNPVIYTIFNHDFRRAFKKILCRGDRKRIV
Procedure: To evaluate in radioligand binding assays the activity of compounds of the invention, human recombinant adrenergic α2A receptor expressed in insect Sf9 cells (Uhlen S et al. J Pharmacol Exp Ther. 271:1558, 1994) in a modified Tris-HCl buffer (50 mM Tris-HCl, pH 7.4, 12.5 mM MgCl2, 2 mM EDTA) was used. Compounds of invention were incubated with 1 nM [^3H]MK-912 for 60 minutes at 25° C. MK912 is (2S-trans)-1,3,4,5′,6,6′,7,12b-octahydro-1′,3′-dimethyl-spiro[2H-benzofuro[2,3-a]quinolizine-2,4′(1′H) -pyrimidin]-2′(3′H)-one hydrochloride Non-specific binding was estimated in the presence of 10 μM WB-4101 (2-(2,6-Dimethoxyphenoxyethyl)aminomethyl-1,4-benzodioxane hydrochloride). Receptor proteins were filtered and washed, the filters were then counted to determine [^3H]MK-912 specifically bound. Compounds were screened at 1 μM or lower, using 1% DMSO as vehicle. Biochemical assay results are presented as the percent inhibition of specific binding in Table 3.

[2] = target: T2, human recombinant histamine H1 receptor (Homo sapiens, UniProt P35367); assay: Histamine H1 radioligand binding ([3H]Pyrilamine); conditions: for inhibition at 1 µM / Histamine Binding (1 μM) H1, Percentage Inhibition: compound at 1 μM, inhibition of specific [3H]Pyrilamine binding; for inhibition at 1 µM: read-out: Histamine Binding (1 μM) H1, Percentage Inhibition
T2 construct: expressed in transfected cells; host or cells: CHO cells
T2 sequence (P35367 whole entry): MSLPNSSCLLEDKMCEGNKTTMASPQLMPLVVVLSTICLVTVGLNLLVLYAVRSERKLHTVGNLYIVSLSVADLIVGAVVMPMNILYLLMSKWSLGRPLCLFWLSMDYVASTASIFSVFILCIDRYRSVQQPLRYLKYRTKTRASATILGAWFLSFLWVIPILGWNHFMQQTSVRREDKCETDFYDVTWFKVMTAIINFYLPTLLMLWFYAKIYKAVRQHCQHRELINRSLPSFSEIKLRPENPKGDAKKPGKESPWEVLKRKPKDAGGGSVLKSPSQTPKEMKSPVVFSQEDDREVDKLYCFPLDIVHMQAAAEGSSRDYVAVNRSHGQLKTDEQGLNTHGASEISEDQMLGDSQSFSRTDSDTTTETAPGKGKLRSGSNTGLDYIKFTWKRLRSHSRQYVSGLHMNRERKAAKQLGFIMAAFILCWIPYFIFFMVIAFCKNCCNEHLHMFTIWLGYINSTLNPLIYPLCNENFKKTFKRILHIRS
Procedure: To evaluate in radioligand binding assays the activity of compounds of the invention, human recombinant histamine H1 receptor expressed in Chinese hamster ovary (CHO) cells (De Backer, M. D. et al., Biochem. Biophys. Res. Comm. 197(3):1601, 1993) in a modified Tris-HCl buffer (50 mM Tris-HCl, pH 7.4, 2 mM MgCl2, 100 mM NaCl, 250 mM Sucrose) was used. Compounds of the invention were incubated with 1.2 nM [^3H]Pyrilamine for 180 minutes at 25° C. Non-specific binding was estimated in the presence of 1 μM pyrilamine. Receptor proteins were filtered and washed, the filters were then counted to determine [^3H]Pyrilamine specifically bound. Compounds were screened at 1 μM or lower, using 1% DMSO as vehicle. Biochemical assay results are presented as the percent inhibition of specific binding in Table 2.

[3] = target: T3, human recombinant histamine H2 receptor (Homo sapiens, UniProt P25021); assay: Histamine H2 radioligand binding ([125I]Aminopotentidine); conditions: compound at 1 μM, inhibition of specific [125I]Aminopotentidine binding; for inhibition at 1 µM: read-out: Histamine Binding (1 μM) H2, Percentage Inhibition
T3 construct: expressed in transfected cells; host or cells: CHO-K1 cells
T3 sequence (P25021 whole entry): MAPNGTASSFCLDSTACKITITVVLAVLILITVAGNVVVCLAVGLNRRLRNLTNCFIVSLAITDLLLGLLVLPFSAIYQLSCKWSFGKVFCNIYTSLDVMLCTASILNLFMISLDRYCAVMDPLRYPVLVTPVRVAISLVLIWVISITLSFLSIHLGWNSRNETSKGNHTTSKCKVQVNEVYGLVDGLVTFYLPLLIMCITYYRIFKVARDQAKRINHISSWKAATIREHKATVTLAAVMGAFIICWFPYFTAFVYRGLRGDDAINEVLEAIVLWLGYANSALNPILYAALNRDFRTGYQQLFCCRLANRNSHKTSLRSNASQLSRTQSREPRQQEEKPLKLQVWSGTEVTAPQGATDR
Procedure: To evaluate in radioligand binding assays the activity of compounds of the invention, human recombinant histamine H2 receptor expressed in Chinese hamster ovary (CHO) K1 cells (Ruat, M., Proc. Natl. Acad. Sci. USA. 87(5):1658, 1990) in a 50 mM Phosphate buffer, pH 7.4 was used. Compounds of the invention were incubated with 0.1 nM [^125I]Aminopotentidine for 120 minutes at 25° C. Non-specific binding was estimated in the presence of 3 μM Tiotidine. Receptor proteins were filtered and washed, the filters were then counted to determine [^125I]Aminopotentidine specifically bound. Compounds were screened at 1 μM or lower, using 1% DMSO as vehicle. Biochemical assay results are presented as the percent inhibition of specific binding in Table 2.

[4] = target: T4, human recombinant dopamine D2L receptor (Homo sapiens, UniProt P14416); assay: Dopamine D2L radioligand binding ([3H]Spiperone); conditions: read-out: Dopamine (1 μM) D2L, inhibition of ligand binding
T4 construct: expressed in transfected cells; host or cells: CHO cells
T4 sequence (P14416 whole entry): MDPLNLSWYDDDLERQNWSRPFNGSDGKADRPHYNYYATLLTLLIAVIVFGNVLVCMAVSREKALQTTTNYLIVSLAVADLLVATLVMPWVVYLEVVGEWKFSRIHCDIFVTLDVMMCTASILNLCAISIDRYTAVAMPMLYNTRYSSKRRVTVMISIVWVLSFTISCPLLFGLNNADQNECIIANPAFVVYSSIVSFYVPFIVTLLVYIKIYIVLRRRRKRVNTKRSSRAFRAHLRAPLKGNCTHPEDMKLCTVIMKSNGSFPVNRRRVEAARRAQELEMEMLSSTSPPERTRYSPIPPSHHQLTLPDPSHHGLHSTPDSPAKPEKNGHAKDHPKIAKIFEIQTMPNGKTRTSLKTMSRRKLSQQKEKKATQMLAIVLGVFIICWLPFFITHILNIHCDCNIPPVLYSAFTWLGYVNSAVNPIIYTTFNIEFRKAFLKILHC
Procedure: To evaluate in radioligand binding assays the activity of compounds of the invention, human recombinant dopamine D2L receptor expressed in Chinese hamster ovary (CHO) cells (Grandy, D. K. et al. Proc. Natl. Acad. Sci. USA. 86:9762, 1989; Hayes, G. et al., Mol. Endocrinol. 6:920, 1992) in a modified Tris-HCl buffer (50 mM Tris-HCl, pH 7.4, 1.4 mM Ascorbic Acid, 0.001% BSA, 150 mM NaCl) was used. Compounds of the invention were incubated with 0.16 nM [^3H]Spiperone for 120 minutes at 25° C. Non-specific binding was estimated in the presence of 10 μM Haloperidol. Receptor proteins were filtered and washed, the filters were then counted to determine [^3H]Spiperone specifically bound. Compounds were screened at 1 μM or lower, using 1% DMSO as vehicle. Biochemical assay results are presented as the percent inhibition of specific binding in Table 3.

Structure (SMILES) | inhibition at 0.01 µM ([1]; 10.0 nM, read-out: Adrenergic α2A, inhibition of ligand binding (10.0 nM)) [%] | inhibition at 0.1 µM ([1]; 0.1 μM, read-out: Adrenergic α2A, inhibition of ligand binding (0.1 μM)) [%] | inhibition at 1 µM [1] [%] | inhibition at 0.01 µM ([2]; compound at 10.0 nM, read-out: Histamine Binding H1, Percentage Inhibition (10.0 nM)) [%] | inhibition at 0.1 µM ([2]; compound at 0.1 μM, read-out: Histamine Binding H1, Percentage Inhibition (0.1 μM)) [%] | inhibition at 1 µM [2] [%] | inhibition at 1 µM [3] [%] | inhibition at 1 µM [4] [%] | Adrenergic α2A, inhibition of ligand binding (1 μM) [1] [%] | Histamine Binding (1 μM) H1, Percentage Inhibition [2] [%] | Histamine Binding (1 μM) H2, Percentage Inhibition ([3]; 1 µM) [%]
Cc1ccc2c(c1)c1c(n2CCc2ccccc2)CC2CCC1N2C (stereo not drawn) [Compound 2] | 47 | 88 | 100 | 42 | 85 | 99 | 43 |  |  |  | 
CN1C2CCC1c1c(n(CCC(=O)N3CCNC(=O)C3)c3ccc(Cl)cc13)C2 (stereo not drawn) [Compound 3] |  |  | 8 |  |  | 12 | 2 | -3 |  |  | 
CN1C2CCC1c1c(n(CCC(=O)N3CCCC3)c3ccc(Cl)cc13)C2 (stereo not drawn) [Compound 5] |  |  | 4 |  |  | 32 | -9 | 10 |  |  | 
CC(=O)N1CCN(C(=O)CCn2c3c(c4cc(Cl)ccc42)C2CCC(C3)N2C)CC1 (stereo not drawn) [Compound 8] |  |  | -2 |  |  | 16 | 9 | 1 |  |  | 
CN1C2CCC1c1c(n(CCC(=O)N3CCNCC3)c3ccc(Cl)cc13)C2 (stereo not drawn) [Compound 9] |  |  | 9 |  |  | 6 | 3 | 7 |  |  | 
CN1C2CCC1c1c(n(CCC(=O)N3CC[S+]([O-])CC3)c3ccc(Cl)cc13)C2 (stereo not drawn) [Compound 10] |  |  | -7 |  |  | 7 | 1 | -2 |  |  | 
CN1C2CCC1c1c(n(CCC(=O)N3CCS(=O)(=O)CC3)c3ccc(Cl)cc13)C2 (stereo not drawn) [Compound 11] |  |  | -10 |  |  | 2 | 9 | 2 |  |  | 
CN1C2CCC1c1c(n(CCC(=O)N3CCSCC3)c3ccc(Cl)cc13)C2 (stereo not drawn) [Compound 12] |  |  | 0 |  |  | 29 | -2 | -4 |  |  | 
CN1C2CCC1c1c(n(CCC(=O)N3CCOCC3)c3ccc(Cl)cc13)C2 (stereo not drawn) [Compound 13] |  |  | 2 |  |  | 28 | -2 | 13 |  |  | 
Cc1ccc2c(c1)c1c(n2CCc2ccc(C)nc2)CC2CCC1N2C (stereo not drawn) [Compound 32] |  |  | 17 |  |  | 94 | 13 | 10 |  |  | 
CN1C2CCC1c1c(n(CCc3ccc(Cl)cc3)c3ccc(F)cc13)C2 (stereo not drawn) [Compound 33] |  |  | 69 |  |  | 86 | 18 | 17 |  |  | 
CN1C2CCC1c1c(n(CCc3ccc(C(F)(F)F)nc3)c3ccc(Cl)cc13)C2 (stereo not drawn) [Compound 34] |  |  | 42 |  |  | 52 | 12 | -0.875 | 39.0 | 55.0 | 24.0
CN1C2CCC1c1c(n(CCc3ccc(F)cc3)c3ccc(F)cc13)C2 (stereo not drawn) [Compound 35] |  |  | 93 |  |  | 93 | 27 | 67 |  |  | 
CN1C2CCC1c1c(n(CCCc3ccc(C(F)(F)F)nc3)c3ccc(Cl)cc13)C2 (stereo not drawn) [Compound 37] |  |  | 10 |  |  | 78 | 7 | 2 |  |  | 
Cc1ccc(CCCn2c3c(c4cc(Cl)ccc42)C2CCC(C3)N2C)cn1 (stereo not drawn) [Compound 38] |  |  | 33 |  |  | 96 | 9 | -5 |  |  | 
CN1C2CCC1c1c(n(CCCc3ccc(Cl)cc3)c3ccc(Cl)cc13)C2 (stereo not drawn) [Compound 39] |  |  | 68 |  |  | 91 | 86 | 2 |  |  | 
Cc1ccc(C(O)Cn2c3c(c4cc(Cl)ccc42)C2CCC(C3)N2C)cn1 (stereo not drawn) [Compound 52] |  |  | 46 |  |  | 91 | 2 | 10 |  |  | 
Cc1ccc2c(c1)c1c(n2CC(C)(O)c2ccc(Cl)cc2)CC2CCC1N2C (stereo not drawn) [Compound 54] |  |  | 75 |  |  | 63 | 50 | 14 |  |  | 
Cc1ccc2c(c1)c1c(n2CCc2ccccc2)CC2CCCC1N2C (stereo not drawn) [Compound 56] |  |  | 92 |  |  | 86 | 16 |  |  |  | 
CN1C2CCC1c1c(n(CCc3ccc(F)cc3)c3ccc(Cl)cc13)C2 (stereo not drawn) [Compound 57] |  |  | 96 |  |  | 96 | 37 |  |  |  | 
CN1C2CCC1c1c(n(CCc3ccc(Cl)cc3)c3ccc(Cl)cc13)C2 (stereo not drawn) [Compound 58] |  |  | 98 |  |  | 98 | 52 |  |  |  | 
CN1C2CCC1c1c(n(CC(=O)N3CCOCC3)c3ccc(Cl)cc13)C2 (stereo not drawn) [Compound 59, 2-(2-chloro-11-methyl-5,6,7,8,9,10-Hexahydro-7,10-iminocyclohept[b]indol-5-yl)-1-morpholinoethanone] |  |  | 17 |  |  | 7 | 15 | 6 |  |  | 
CN1C2CCC1c1c(n(CC(=O)N3CCCC3)c3ccc(Cl)cc13)C2 (stereo not drawn) [Compound 60] |  |  | 2 |  |  | 21 | 3 | 0 |  |  | 
Cc1ccc(CCn2c3c(c4cc(Cl)ccc42)C2CCC(C3)N2C)cc1 (stereo not drawn) [Compound 61] |  |  | 97 |  |  | 98 | 52 | 44 |  |  | 
Cc1ccc2c(c1)c1c(n2CCc2ccc(F)cc2)CC2CCC1N2C (stereo not drawn) [Compound 62] |  |  | 96 |  |  | 98 | 52 | 41 |  |  | 
Cc1ccc2c(c1)c1c(n2CCc2ccc(C(F)(F)F)nc2)CC2CCC1N2C (stereo not drawn) [Compound 71] |  |  | 28 |  |  | 33 |  | -2 | 48.0 | 46.0 | 
